# Measurements taken from patent publication US10125135B2, “Chemical compounds” (AstraZeneca AB, priority 2016, dated 2018).
# Assays:
# [1] = molecular target: ERα receptor in MCF-7 human ductal carcinoma breast cell line (Homo sapiens (Human), UniProt P03372); test: MCF-7 ER down regulation assay (immuno-fluorescence); assay type: cell-based; conditions: MCF-7 cells; for DC50: 18-22 hours incubation, read-out: ER down regulation IC50 value
# Protocol: MCF-7 ER Down Regulation Assay
# The ability of compounds to down-regulate Estrogen Receptor (ER) numbers was assessed in a cell based immuno-fluorescence assay using the MCF-7 human ductal carcinoma breast cell line. MCF-7 cells were revived directly from a cryovial (approx 5×10^6 cells) in Assay Medium (phenol red free Dulbecco's Modified Eagle's medium (DMEM) (Sigma D5921) containing 2mM L-Glutamine and 5% (v/v) Charcoal/Dextran treated foetal calf serum. Cells were syringed once using a sterile 18 G×1.5 inch (1.2×40 mm) broad gauge needle and cell density was measured using a Coulter Counter (Beckman). Cells were further diluted in Assay Medium to a density of 3.75×10^4 cells per mL and 40 μL per well added to transparent bottomed, black, tissue culture treated 384 well plates (Costar, No. 3712) using a Thermo Scientific Matrix WellMate or Thermo Multidrop. Following cell seeding, plates were incubated overnight at 37° C., 5% CO2 (Liconic carousel incubator). Test data was generated using the LabCyte Echo™ model 555 compound reformatter which is part of an automated workcell (Integrated Echo 2 workcell). 10 mM compound stock solutions of the test compounds were used to generate a 384 well compound dosing plate (Labcyte P-05525-CV1). […] 40 μΛ of DMSO added to wells in row P on the source plate allow for DMSO normalisation across the dose range. To dose the control wells 40 μL of DMSO was added to row O1 and 40 μL of 100 μM fulvestrant in DMSO was added to row O3 on the compound source plate. […] Compounds were dispensed onto the cell plates with a compound source plate prepared as above producing a 12 pt duplicate 3 μM to 3 pM dose range with 3 fold dilutions and one final 10 fold dilution using the Integrated Echo 2 workcell. […] Cells were fixed at room temperature for 20 mins before being washed two times with 250 μL PBS/Proclin (PBS with a Biocide preservative) using a BioTek platewasher, 40 μL of PBS/Proclin was then added to all wells and the plates stored at 4° C. The fixing method described above was carried out on the Integrated Echo 2 workcell. Immunostaining was performed using an automated AutoElisa workcell. The PBS/Proclin was aspirated from all wells and the cells permeabilised with 40 μL PBS containing 0.5% Tween™ 20 (v/v) for 1 hour at room temperature. The plates were washed three times in 250 μL of PBS/0.05% (v/v) Tween 20 with Proclin (PBST with a Biocide preservative) and then 20 μL of ERα (SP1) Rabbit monoclonal antibody (Thermofisher) 1:1000 in PBS/Tween™/3% (w/v) Bovine Serum Albumin was added. The plates were incubated overnight at 4° C. (Liconic carousel incubator) and then washed three times in 250 μL of PBS/0.05% (v/v) Tween™ 20 with Proclin (PBST). The plates were then incubated with 20 μL/well of a goat anti-rabbit IgG AlexaFluor 594 or goat anti-rabbit AlexaFluor 488 antibody (Molecular Probes) with Hoechst at 1:5000 in PBS/Tween™/3% (w/v) Bovine Serum Albumin for lhour at room temperature. The plates were then washed three times in 250 μL of PBS/0.05% (v/v) Tween™ 20 with Proclin (PBST with a Biocide preservative). 20 μL of PBS was added to each well and the plates covered with a black plate seal and stored at 4° C. before being read. Plates were read using a Cellomics Arrayscan reading the 594 nm (24 hr time point) or 488 nm (5 hr timepoint) fluorescence to measure the ERα receptor level in each well. The mean total intensity was normalized for cell number giving the total intensity per cell.
# [2] = Human hepatocyte assay (metabolic stability); assay type: in vitro ADME; conditions: human hepatocytes, 37° C., 1.0×10^6 viable cells/mL; read-out: Clint (in vitro intrinsic clearance)
# Protocol: The metabolic stability of compounds in human hepatocytes was assessed using the following protocol: • 1. Prepare 10 mM stock solutions of compound and control compounds in appropriate solvent (DMSO). Place incubation medium (L-15Medium) in a 37° C. water bath, and allow warming for at least 15 minutes prior to use. • 2. Add 80 μL of acetonitrile to each well of the 96-well deep well plate (quenching plate). • 3. In a new 96-well plate, dilute the 10 mM test compounds and the control compounds to 100 μM by combining 198 μL of acetonitrile and 2 μL of 10 mM stock. • 4. Remove a vial of cryopreserved (less than −150° C.) human hepatocytes (LiverPool™ 10 Donor Human hepatocytes obtained from Celsis IVT. Chicago, Ill. (Product No. S01205)) from storage, ensuring that vials remain at cryogenic temperatures until thawing process ensues. As quickly as possible, thaw the cells by placing the vial in a 37° C. water bath and gently shaking the vials. Vials should remain in water bath until all ice crystals have dissolved and are no longer visible. After thawing is completed, spray vial with 70% ethanol, transfer the vial to a bio-safety cabinet. • 5. Open the vial and pour the contents into the 50 mL conical tube containing thawing medium. Place the 50 mL conical tube into a centrifuge and spin at 100 g for 10 minutes. […] Using Cellometer® Vision, count cells and determine the viable cell density. Cells with poor viability (<80% viability) are not acceptable for use. Dilute cells with incubation medium to a working cell density of 1.0×10^6 viable cells/mL. • 7. Transfer 247.5 μL of hepatocytes into each well of a 96-well cell culture plate. Place the plate on Eppendorf Thermomixer Comfort plate shaker to allow the hepatocytes to warm for 10 minutes. • 8. Add 2.5 μL of 100 μM test compound or control compounds into an incubation well containing cells, mix to achieve a homogenous suspension at 0.5 min, which when achieved, will define the 0.5 min time point. At the 0.5 min time, transfer 20 μL incubated mixture to wells in a “Quenching plate” followed by vortexing. • 9. Incubate the plate at 37° C. at 900 rpm on an Eppendorf Thermomixer Comfort plate shaker. At 5, 15, 30, 45, 60, 80, 100 and 120 min, mix the incubation system and transfer samples of 20 μL incubated mixture at each time point to wells in a separate “Quenching plate” followed by vortexing. • 10. Centrifuge the quenching plates for 20 minutes at 4,000 rpm. 4 different compounds are pooled into one cassette and used for LC/MS/MS analysis.
# All calculations are carried out using Microsoft Excel. Peak areas are determined from extracted ion chromatograms. In vitro intrinsic clearance (in vitro Clint, in μL/min/10^6 cells) of parent compound is determined by regression analysis of the Ln percent parent disappearance vs. time curve. The in vitro intrinsic clearance (in vitro Clint, in μL/min/10^6 cells) is determined from the slope value using the following equation and is shown in Table C:
# V=incubation volume (0.25 mL);
# N=number of hepatocytes per well (0.25×10 ^6 cells).
# Chain of ERα receptor in MCF-7 human ductal carcinoma breast cell line (P03372 whole entry): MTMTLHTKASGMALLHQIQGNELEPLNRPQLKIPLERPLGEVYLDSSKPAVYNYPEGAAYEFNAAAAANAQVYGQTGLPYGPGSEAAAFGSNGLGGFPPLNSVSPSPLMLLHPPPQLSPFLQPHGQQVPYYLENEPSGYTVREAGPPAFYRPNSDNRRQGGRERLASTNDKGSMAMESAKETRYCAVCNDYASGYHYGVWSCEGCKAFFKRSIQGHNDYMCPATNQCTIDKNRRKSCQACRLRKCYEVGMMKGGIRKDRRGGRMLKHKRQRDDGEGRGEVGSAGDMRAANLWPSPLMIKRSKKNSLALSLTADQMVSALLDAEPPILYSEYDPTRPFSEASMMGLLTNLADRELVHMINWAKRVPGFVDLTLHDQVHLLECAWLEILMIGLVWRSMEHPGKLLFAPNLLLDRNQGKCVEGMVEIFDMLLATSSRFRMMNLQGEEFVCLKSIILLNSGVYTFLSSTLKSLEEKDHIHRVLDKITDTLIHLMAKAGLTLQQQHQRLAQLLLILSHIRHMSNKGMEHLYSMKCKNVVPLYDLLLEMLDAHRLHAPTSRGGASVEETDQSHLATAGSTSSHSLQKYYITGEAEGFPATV
Compound,DC50 [1],% downregulation (in brackets) in ER down regulation assay ([1]; >90% unless otherwise stated),hepatocyte CLint at 1 µM [2]
"C[C@@H]1Cc2c(ccc3[nH]ncc23)[C@@H](c2c(F)cc(OCCN3CC(CF)C3)cc2F)N1CC(C)(C)F [Example 1, (6S,8R)-6-(2,6-difluoro-4-(2-(3-(fluoromethyl)azetidin-1-yl)ethoxy)phenyl)-7-(2-fluoro-2-methylpropyl)-8-methyl-6,7,8,9-tetrahydro-3H-pyrazolo[4,3-f]isoquinoline]",0.097 nM,,8 µL/min/1e6 cells
"C[C@@H]1Cc2c(ccc3[nH]ncc23)[C@@](C)(c2c(F)cc(OCCN3CC(CF)C3)cc2F)N1CC(C)(C)F [Example 2, (6S,8R)-6-(2,6-difluoro-4-(2-(3-(fluoromethyl)azetidin-1-yl)ethoxy)phenyl)-7-(2-fluoro-2-methylpropyl)-6,8-dimethyl-6,7,8,9-tetrahydro-3H-pyrazolo[4,3-f]isoquinoline]",0.088 nM,,8 µL/min/1e6 cells
"CC(C)CN1[C@H](c2ccc(OCCN3CC(CF)C3)cc2)c2ccc3[nH]ncc3c2C[C@H]1C [Example 28, (6R,8R)-6-(4-(2-(3-(fluoromethyl)azetidin-1-yl)ethoxy)phenyl)-7-isobutyl-8-methyl-6,7,8,9-tetrahydro-3H-pyrazolo[4,3-f]isoquinoline]",0.14 nM,,8 µL/min/1e6 cells
"C[C@@H]1Cc2c(ccc3[nH]ncc23)[C@@H](c2ccc(OCCN3CC(CF)C3)cc2)N1CC1(F)CC1 [Example 29, (6R,8R)-7-((1-fluorocyclopropyl)methyl)-6-(4-(2-(3-(fluoromethyl)azetidin-1-yl)ethoxy)phenyl)-8-methyl-6,7,8,9-tetrahydro-3H-pyrazolo[4,3-f]isoquinoline]",0.35 nM,,12 µL/min/1e6 cells
"C[C@@H]1Cc2c(ccc3[nH]ncc23)[C@@H](c2ccc(OCCN3CC(CF)C3)cc2)N1CC1(F)COC1 [Example 31, (6R,8R)-6-(4-(2-(3-(fluoromethyl)azetidin-1-yl)ethoxy)phenyl)-7-((3-fluorooxetan-3-yl)methyl)-8-methyl-6,7,8,9-tetrahydro-3H-pyrazolo[4,3-f]isoquinoline]",0.2 nM,,38 µL/min/1e6 cells
"C[C@@H]1Cc2c(ccc3[nH]nc(F)c23)[C@@H](c2c(F)cc(OCCN3CC(CF)C3)cc2F)N1CC1(F)COC1 [Example 43, (6S,8R)-6-(2,6-difluoro-4-(2-(3-(fluoromethyl)azetidin-1-yl)ethoxy)phenyl)-1-fluoro-7-((3-fluorooxetan-3-yl)methyl)-8-methyl-6,7,8,9-tetrahydro-3H-pyrazolo[4,3-f]isoquinoline]",0.59 nM,,
"CC1(C)Cc2c(ccc3[nH]ncc23)C(c2ccc(OCCN3CC(CF)C3)cn2)N1CC(F)F (stereo not shown) [Example 45, 7-(2,2-difluoroethyl)-6-(5-(2-(3-(fluoromethyl)azetidin-1-yl)ethoxy)pyridin-2-yl)-8,8-dimethyl-6,7,8,9-tetrahydro-3H-pyrazolo[4,3-f]isoquinoline]",3.1 nM,,
"COc1nc(OCCN2CC(CF)C2)ccc1[C@@H]1c2ccc3[nH]ncc3c2C[C@@H](C)N1CC1(F)CC1 [Example 46, (6S,8R)-7-((1-fluorocyclopropyl)methyl)-6-(6-(2-(3-(fluoromethyl)azetidin-1-yl)ethoxy)-2-methoxypyridin-3-yl)-8-methyl-6,7,8,9-tetrahydro-3H-pyrazolo[4,3-f]isoquinoline]",0.14 nM,,

# More lines, in order of falling DC50 [1], values ahead:
DC50 [1],% downregulation (in brackets) in ER down regulation assay ([1]; >90% unless otherwise stated),Compound,hepatocyte CLint at 1 µM [2]
1.9 nM,,"C[C@@H]1Cc2c(ccc3[nH]ncc23)[C@@H](c2ncc(OCCN3CC(CF)C3)cc2F)N1CC(F)F [Example 48, (6S,8R)-7-(2,2-difluoroethyl)-6-(3-fluoro-5-(2-(3-(fluoromethyl)azetidin-1-yl)ethoxy)pyridin-2-yl)-8-methyl-6,7,8,9-tetrahydro-3H-pyrazolo[4,3-f]isoquinoline]",
0.42 nM,,"CC(C)CN1[C@H](c2c(F)cc(OCCN3CC(CF)C3)cc2F)c2ccc3[nH]nc(F)c3c2C[C@H]1C [Example 44, (6S,8R)-6-(2,6-difluoro-4-(2-(3-(fluoromethyl)azetidin-1-yl)ethoxy)phenyl)-1-fluoro-7-isobutyl-8-methyl-6,7,8,9-tetrahydro-3H-pyrazolo[4,3-f]isoquinoline]",
0.16 nM,,"CC(C)(F)CN1[C@H](c2c(F)cc(OCCN3CC(CF)C3)cc2F)c2ccc3[nH]ncc3c2C[C@H]1C(F)F [Example 3, (6S,8S)-6-(2,6-difluoro-4-(2-(3-(fluoromethyl)azetidin-1-yl)ethoxy)phenyl)-8-(difluoromethyl)-7-(2-fluoro-2-methylpropyl)-6,7,8,9-tetrahydro-3H-pyrazolo[4,3-f]isoquinoline]",16 µL/min/1e6 cells
0.16 nM,80%,"CC(C)(F)CN1[C@H](C(F)F)Cc2c(ccc3[nH]ncc23)[C@@]1(C)c1c(F)cc(OCCN2CC(CF)C2)cc1F [Example 4, (6S,8S)-6-(2,6-difluoro-4-(2-(3-(fluoromethyl)azetidin-1-yl)ethoxy)phenyl)-8-(difluoromethyl)-7-(2-fluoro-2-methylpropyl)-6-methyl-6,7,8,9-tetrahydro-3H-pyrazolo[4,3-f]isoquinoline]",10 µL/min/1e6 cells
0.087 nM,,"C[C@@H]1Cc2c(ccc3[nH]ncc23)[C@@](C)(c2ccc(OCCN3CC(CF)C3)cc2)N1CC1(F)CC1 [Example 30, (6R,8R)-7-((1-fluorocyclopropyl)methyl)-6-(4-(2-(3-(fluoromethyl)azetidin-1-yl)ethoxy)phenyl)-6,8-dimethyl-6,7,8,9-tetrahydro-3H-pyrazolo[4,3-f]isoquinoline]",13 µL/min/1e6 cells
